Values after ≈ are worked out from the molar mass of the structure shown. Like-named read-outs stand apart in the source and are kept apart here.
How the values were obtained:
E. coli CECT434 = test system: E. coli CECT434; parameters: method as in PMID 22823343; settings: cited from earlier work
A. xylosoxidans 37F = test: Antimicrobial microdilution assay (MIC/MBC); format: cell-based, Achromobacter xylosoxidans; settings: for MIC: 37 °C, 24 h; for MBC: subcultivation, 24 h at 37 °C
Experimental: (§1) The bacterial suspension (0.5 Mc Farland) was prepared, and twenty-fold dilutions of these suspensions were mixed in a 1:10 ratio with the corresponding polyphenol dilution (0.0039–1 mg/mL). Microtiter plates were incubated at 37 °C for 24 h. The lowest concentrations without visible growth (under a binocular microscope) were defined as MICs. The bactericidal concentrations (MBCs) were determined by serial subcultivation of 2 μL of the well’s content and further incubation for 24 h at 37 °C. Streptomycin (SigmaAldrich, Darmstadt, Germany) was used as a positive control. The polyphenols were obtained from Extrasynthese, Rhone, France (rutin, isoquercitrin) and SigmaAldrich, Germany (hesperetin, hesperidin, naringenin, naringin, taxifolin, morin, chlorogenic acid, ferulic acid, p-coumaric acid, and gallic acid). The stock compounds were prepared in ethanol (30%), and adequate ethanol concentrations were used as the negative control in the assays. Experiments were done in triplicate.

P. aeruginosa ATCC 10145 = test system: P. aeruginosa ATCC 10145; parameters: method as in PMID 22823343; settings: cited from earlier work
[1] = test system: Methicillin resistant S. aureus IBRS MRSA 011; test: Antimicrobial microdilution assay (MIC/MBC); format: cell-based, Staphylococcus aureus; settings: for MIC: 37 °C, 24 h; for MBC: subcultivation, 24 h at 37 °C
Experimental: as §1

[2] = test system: eleven antibiotic resistant strains of bacteria; test: Antimicrobial assay, summary over the examined strains; format: cell-based; settings: antibiotic resistant strains of Table 1
Experimental: as §1

P. aeruginosa MMA83 = test: Antimicrobial microdilution assay (MIC/MBC); format: cell-based, Pseudomonas aeruginosa; settings: for MIC: 37 °C, 24 h; for MBC: subcultivation, 24 h at 37 °C
Experimental: as §1

P. aeruginosa IBRS P001 = test: Antimicrobial microdilution assay (MIC/MBC); format: cell-based, Pseudomonas aeruginosa; settings: for MIC: 37 °C, 24 h; for MBC: subcultivation, 24 h at 37 °C
Experimental: as §1

K. pneumoniae Ni9 = test: Antimicrobial microdilution assay (MIC/MBC); format: cell-based, Klebsiella pneumoniae; settings: for MIC: 37 °C, 24 h; for MBC: subcultivation, 24 h at 37 °C
Experimental: as §1

K. pneumoniae IT977 = test: Antimicrobial microdilution assay (MIC/MBC); format: cell-based, Klebsiella pneumoniae; settings: for MIC: 37 °C, 24 h; for MBC: subcultivation, 24 h at 37 °C
Experimental: as §1

[3] = test system: P. aeruginosa ATCC 10145 biofilms; parameters: method as in PMID 22823343; settings: 1000 µg/mL; cited from earlier work
S. infantis 1371/1 = test: Antimicrobial microdilution assay (MIC/MBC); format: cell-based, Salmonella Infantis; settings: for MIC: 37 °C, 24 h; for MBC: subcultivation, 24 h at 37 °C
Experimental: as §1

E. coli IBRS E003 = test: Antimicrobial microdilution assay (MIC/MBC); format: cell-based, Escherichia coli; settings: for MIC: 37 °C, 24 h; for MBC: subcultivation, 24 h at 37 °C
Experimental: as §1

E. coli IMD989 = test: Antimicrobial microdilution assay (MIC/MBC); format: cell-based, Escherichia coli; settings: for MIC: 37 °C, 24 h; for MBC: subcultivation, 24 h at 37 °C
Experimental: as §1

[4] = test system: P. aeruginosa IBRS P001 biofilm; test: Crystal violet antibiofilm assay (biofilm formation); format: cell-based, Pseudomonas aeruginosa; settings: 24 h
Experimental: After incubation, each well was washed twice with sterile PBS (phosphate-buffered saline, pH 7.4) and fixed with methanol for 10 min. After removal of methanol the plate was air-dried. The biofilm was stained with 0.1% crystal violet (Bio-Merieux, Marcy l’Etoile, France) for 30 min. The plate was washed with water, air dried, and the stain was dissolved with 200 μL of 96% ethanol (Zorka, Sabac, Serbia). The absorbance was read at 620 nm on a Multiskan™ FC microplate photometer (Thermo Scientific™, Waltham, MA, USA). The results are presented as biofilm forming capacity (%) compared to control.

S. aureus CECT 976 = test system: S. aureus CECT 976; parameters: method as in PMID 22823343; settings: cited from earlier work
HaCaT cells [5] = test: Cytotoxicity in HaCaT cell line (crystal violet assay); format: cell-based, human; settings: HaCaT, 24 h treatment, crystal violet
Experimental: For determination of the polyphenols’ cytotoxic effect, a crystal violet assay was used, with modifications. The cytotoxic effect of polyphenols was analyzed on spontaneously immortalized human skin keratinocytes (HaCaT, AddexBio No. T0020001, San Diego, CA, USA) cell lines. […] Cells (1 × 10^4 cells/well) were seeded in a 96-well plate (Sarstedt, Nümbrecht, Germany) 24 h before treatment. […] Cells were incubated with the compounds for 24 h. […] After crystal violet was removed, the plates were washed in a stream of tap water and left to air-dry at room temperature for 24 h. The absorbance was measured in a microplate reader (Multiskan™ FC Microplate Photometer, Thermo Scientific™) at 590 nm. The results were expressed as IC50 value in μg/mL. The criterion used to categorize the cytotoxic activity polyphenols was as follows: […] All analyses were performed in triplicate; each replicate was also quantified three times. Data were expressed as mean standard deviation, where applicable.

A. baumannii S2/2 = test: Antimicrobial microdilution assay (MIC/MBC); format: cell-based, Acinetobacter baumannii; settings: for MIC: 37 °C, 24 h; for MBC: subcultivation, 24 h at 37 °C
Experimental: as §1

A. baumannii 6077/12 = test: Antimicrobial microdilution assay (MIC/MBC); format: cell-based, Acinetobacter baumannii; settings: for MIC: 37 °C, 24 h; for MBC: subcultivation, 24 h at 37 °C
Experimental: as §1

HaCaT cells [6] = test system: HaCaT cells; parameters: method as in PMID 28962387; settings: previous assessment; cited from earlier work
E. coli ATCC 25922 = test system: E. coli ATCC 25922; parameters: method as in PMID 29327068; settings: cited from earlier work

COc1cc(/C=C/C(=O)O)ccc1O [Ferulic acid, ferulic acid]
MIC (E. coli CECT434): 100 µg/mL (≈ 0.515 mM)
MIC (A. xylosoxidans 37F): 1000 µg/mL (≈ 5.15 mM)
MBC (A. xylosoxidans 37F): 1000 µg/mL (≈ 5.15 mM)
MIC (P. aeruginosa ATCC 10145): 100 µg/mL (≈ 0.515 mM)
MIC [1]: 500 µg/mL (≈ 2.57 mM)
MBC [1]: 1000 µg/mL (≈ 5.15 mM)
lowest MIC among the examined strains [2]: 500 µg/mL
MIC (P. aeruginosa MMA83): 1000 µg/mL (≈ 5.15 mM)
MBC (P. aeruginosa MMA83): 1000 µg/mL (≈ 5.15 mM)
MIC (P. aeruginosa IBRS P001): 500 µg/mL (≈ 2.57 mM)
MBC (P. aeruginosa IBRS P001): 1000 µg/mL (≈ 5.15 mM)
MIC (K. pneumoniae Ni9): 1000 µg/mL (≈ 5.15 mM)
MBC (K. pneumoniae Ni9): 1000 µg/mL (≈ 5.15 mM)
MIC (K. pneumoniae IT977): 1000 µg/mL (≈ 5.15 mM)
MBC (K. pneumoniae IT977): 1000 µg/mL (≈ 5.15 mM)
reduction of biofilms [3]: more than 70%
MIC (S. infantis 1371/1): 1000 µg/mL (≈ 5.15 mM)
MBC (S. infantis 1371/1): 1000 µg/mL (≈ 5.15 mM)
MIC (E. coli IBRS E003): >1000 µg/mL
MBC (E. coli IBRS E003): >1000 µg/mL
MIC (E. coli IMD989): 1000 µg/mL (≈ 5.15 mM)
MBC (E. coli IMD989): 1000 µg/mL (≈ 5.15 mM)
biofilm inhibition ([4]; 500 µg/mL (MIC)): even higher inhibition
reduction of biofilm formation (biomass), in words ([4]; MIC and sub-MIC, crystal violet, Figure 1): significant (****, p < 0.0001) reduction
MIC (S. aureus CECT 976): 1100 µg/mL (≈ 5.66 mM)
IC50 (compound concentration that inhibited 50% of the cell growth) (HaCaT cells [5]): >1000 µg/mL
MIC (A. baumannii S2/2): 500 µg/mL (≈ 2.57 mM)
MBC (A. baumannii S2/2): 500 µg/mL (≈ 2.57 mM)
MIC (A. baumannii 6077/12): 500 µg/mL (≈ 2.57 mM)
MBC (A. baumannii 6077/12): 500 µg/mL (≈ 2.57 mM)

O=C(O)c1cc(O)c(O)c(O)c1 [Gallic Acid, gallic acid]
IC50 towards HaCaT cells (HaCaT cells [6]): 84.2 µg/mL (≈ 0.495 mM)
MIC (A. xylosoxidans 37F; Achromobacter xylosoxidans, 37F, read-out: MIC): 500 µg/mL (≈ 2.94 mM)
MBC (A. xylosoxidans 37F; Achromobacter xylosoxidans, 37F, read-out: MBC): 1000 µg/mL (≈ 5.88 mM)
MIC ([1]; Staphylococcus aureus, MRSA, read-out: MIC): > 1000 µg/mL
MBC ([1]; Staphylococcus aureus, MRSA, read-out: MBC): > 1000 µg/mL
MIC (P. aeruginosa MMA83; Pseudomonas aeruginosa, MMA83, read-out: MIC): 1000 µg/mL (≈ 5.88 mM)
MBC (P. aeruginosa MMA83; Pseudomonas aeruginosa, MMA83, read-out: MBC): 1000 µg/mL (≈ 5.88 mM)
MIC (P. aeruginosa IBRS P001; Pseudomonas aeruginosa, IBRSP001, read-out: MIC): > 1000 µg/mL
MBC (P. aeruginosa IBRS P001; Pseudomonas aeruginosa, IBRSP001, read-out: MBC): > 1000 µg/mL
MIC (K. pneumoniae Ni9; Klebsiella pneumoniae, NI9, read-out: MIC): 1000 µg/mL (≈ 5.88 mM)
MBC (K. pneumoniae Ni9; Klebsiella pneumoniae, NI9, read-out: MBC): 1000 µg/mL (≈ 5.88 mM)
MIC (K. pneumoniae IT977; Klebsiella pneumoniae, IT977, read-out: MIC): 1000 µg/mL (≈ 5.88 mM)
MBC (K. pneumoniae IT977; Klebsiella pneumoniae, IT977, read-out: MBC): 1000 µg/mL (≈ 5.88 mM)
MIC (S. infantis 1371/1; Salmonella enterica, 1371/1, read-out: MIC): > 1000 µg/mL
MBC (S. infantis 1371/1; Salmonella enterica, 1371/1, read-out: MBC): > 1000 µg/mL
MIC (E. coli IBRS E003): >1000 µg/mL
MIC (E. coli IBRS E003; Escherichia coli, IBRSE003, read-out: MIC): > 1000 µg/mL
MBC (E. coli IBRS E003; Escherichia coli, IBRSE003, read-out: MBC): > 1000 µg/mL
MIC (E. coli IMD989): >1000 µg/mL
MIC (E. coli IMD989; Escherichia coli, IMD989, read-out: MIC): > 1000 µg/mL
MBC (E. coli IMD989; Escherichia coli, IMD989, read-out: MBC): > 1000 µg/mL
MIC (E. coli ATCC 25922): 500 µg/mL (≈ 2.94 mM)
IC50 (HaCaT cells [5]; Homo sapiens, read-out: IC50 (compound concentration that inhibited 50% of the cell growth)): < 80 µg/mL
MIC (A. baumannii S2/2; Acinetobacter baumannii, S2/2, read-out: MIC): 500 µg/mL (≈ 2.94 mM)
MBC (A. baumannii S2/2; Acinetobacter baumannii, S2/2, read-out: MBC): 500 µg/mL (≈ 2.94 mM)
MIC (A. baumannii 6077/12; Acinetobacter baumannii, 6077/12, read-out: MIC): 500 µg/mL (≈ 2.94 mM)
MBC (A. baumannii 6077/12; Acinetobacter baumannii, 6077/12, read-out: MBC): 1000 µg/mL (≈ 5.88 mM)

— paper PMC8952364, “Polyphenols as Inhibitors of Antibiotic Resistant Bacteria—Mechanisms Underlying Rutin Interference with Bacterial Virulence” (Pharmaceuticals, 2022)
